Experiment [1] has as its system human T cells (PBMCs). Kind of experiment: Ex vivo T-cell activation in human PBMCs upon CD3/CD28 stimulation. It counts as cell-based. The settings on record: 10 μM Debio 1143 added to anti-CD3/CD28 stimulation, 24 hours, cytometric analysis. Here is the method: FIG. 1: Ex vivo T-cell activation in human peripheral blood mononuclear cells (PBMCs) upon CD3/CD28 stimulation and Debio 1143 treatment. N=1 healthy donor; values represent means of triplicates±SD. To test the effect of Debio 1143 on activation of human T cells, PBMCs freshly isolated from healthy human donors were stimulated ex vivo with anti-CD3/CD28 antibodies for 24 in the presence of 10 μM Debio 1143, or control treatments without stimulation and Debio 1143 incubation.

For experiment [2], the system named is MBT-2 bladder cancer. Kind of experiment: Subcutaneous MBT-2 mouse bladder cancer syngeneic model. In kind it is in vivo. The settings on record: anti-PD-L1 5 mg/kg i.p. bi-weekly; Debio 1143 100 mg/kg p.o. QD1-5; alone or combined, 3 weeks. How it is done:
FIG. 3: Anti-tumor activity of Debio 1143, anti-PD-L1 antibody, and their combination in the subcutaneous MBT-2 mouse bladder cancer syngeneic model.
The anti-tumor activity of an anti-PD-L1 antibody (5 mg/kg BIW i.p.; clone 10F.9G2, BioXcell) was tested either alone or in combination with Debio 1143 (100 mg/kg QD1-5 p.o.) in MBT-2 immunocompetent syngeneic mouse model of bladder cancer in C3H/HeNCrl mice over 3 weeks (see, for example, Shimazui et al., 2013. Int J Oncol. 42(2):543-8). Each mouse was inoculated subcutaneously at the right flank region with MBT-2 tumor cells (2×10^5) in 0.1 ml of PBS for tumor development. The treatments were started when the mean tumor size reached 101 mm^3 (n=8/group).

As to `CN[C@@H](C)C(=O)N[C@H]1CN(C(=O)CC(C)C)CC[C@H]2CC[C@@H](C(=O)NC(c3ccccc3)c3ccccc3)N2C1=O` [Debio 1143, (5S,8S,10aR)-N-benzhydryl-5-((S)-2-(methylamino)propanamido)-3-(3-methylbutanoyl)-6-oxodecahydropyrrolo[1,2-a][1,5]diazocine-8-carboxamide], in experiment [1], the “T cell activation (percentage of IFNγ+ CD4+ and IFNγ+ CD8+ T-cells)” value is recorded as “significant increase in T cell activation”. In addition, in experiment [2], the anti-tumor activity result is recorded as “weak anti-tumor activity”.
